This is an account of results in patent publication US20260091026A1, “METHODS OF TREATING INFLAMMATORY DISEASES” (INTERLINE THERAPEUTICS, INC., priority 2023, published 2026).

The term IC50 denotes the concentration at which inhibition is half-maximal.

Assay [1] relates to THP1-Dual cells, NF-κB pathway (SEAP). As to the kind of experiment: THP-1 Dual cell SEAP assay (L18-MDP stimulated). The note with it: Homo sapiens, 10 ng/mL L18-MDP, 20-24 h, SEAP readout, read-out: IFNγ THP1 IC50. The assay is classed as cell-based. An outline of the steps: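 About 25,000 THP1-Dual cells per well were preincubated 30 min with serially diluted compound, then stimulated overnight (20-24 h, 37 °C) with 10 ng/mL L18-MDP (final). NF-κB-driven SEAP in supernatant was read with QUANTI-Blue at OD 620-655 nm after 2 h; % inhibition versus DMSO/L18-MDP wells was fitted by non-linear regression to give IC50.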

The target in a further assay is T1, RIPK2 (KD)/XIAP (BIR2) (Homo sapiens, UniProt O43353).
T1 construct: made in house; host or cells: baculovirus-infected Sf9 cells
As to the kind of experiment: RIPK2-XIAP binding competition PPI assay (TR-FRET). The note with it: for Emax: 50 nM of GSK583 = -100% activity, read-out: PPI Amax; for IC50: GST-RIPK2 / His-XIAP (BIR2)-avi, 120 min at 23° C. An outline of the steps:
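TR-FRET competition between GST-RIPK2 (aa 1-310, 1 nM) and His-XIAP BIR2-avi (aa 152-231, 25 nM), both Sf9-expressed, detected with anti-His-XL665 and anti-GST-Tb in Tris pH 7.5 buffer with MgCl2, DTT and vanadate. Incubation was 120 min at 23 °C; the 665/520 nm ratio was normalized to no inhibitor (0%) and 50 nM GSK583 (−100%).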
Background: Time-resolved FRET reads energy transfer from a long-lived donor to a nearby acceptor.

T1 sequence (O43353 1-310): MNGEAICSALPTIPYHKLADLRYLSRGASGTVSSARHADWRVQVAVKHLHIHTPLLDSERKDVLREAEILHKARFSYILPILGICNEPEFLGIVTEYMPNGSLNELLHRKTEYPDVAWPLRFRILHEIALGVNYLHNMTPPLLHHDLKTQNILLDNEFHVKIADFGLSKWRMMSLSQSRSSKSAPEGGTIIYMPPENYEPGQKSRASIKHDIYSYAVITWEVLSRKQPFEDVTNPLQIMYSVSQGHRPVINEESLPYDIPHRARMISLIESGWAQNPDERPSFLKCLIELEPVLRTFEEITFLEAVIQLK

Turning to `COc1ccccc1CNC(=O)c1cc(-c2cnc3cc(OC)c(S(=O)(=O)C(C)(C)C)cn23)nn1C` [Example 73, 3-(6-(tert-butylsulfonyl)-7-methoxyimidazo[1,2-a]pyridin-3-yl)-N-(2-methoxybenzyl)-1-methyl-1H-pyrazole-5-carboxamide], the IC50 in assay [1] lay in the range of 500 to 2500 nM. For the same compound, on RIPK2 (KD)/XIAP (BIR2), the Emax was at least 80% and the IC50 lay within 10 to 100 nM.
In the case of `COc1cc2ncc(-c3cc(C(=O)NCc4ccccc4CO)n(C)n3)n2cc1S(=O)(=O)C(C)(C)C` [Example 74, 3-(6-(tert-butylsulfonyl)-7-methoxyimidazo[1,2-a]pyridin-3-yl)-N-(2-(hydroxymethyl)benzyl)-1-methyl-1H-pyrazole-5-carboxamide], the half-maximal inhibitory concentration (IC50) fell in the range of 500 to 2500 nM in assay [1] and 10 to 100 nM on RIPK2 (KD)/XIAP (BIR2). The Emax at RIPK2 (KD)/XIAP (BIR2) was at least 80%.
`COc1ccccc1[C@@H](C)NC(=O)c1cc(-c2cnc3cc(OCCO)c(S(=O)(=O)C(C)(C)C)cn23)nn1C` [Example 75, (R)-3-(6-(tert-butylsulfonyl)-7-(2-hydroxyethoxy)imidazo[1,2-a]pyridin-3-yl)-N-(1-(2-methoxyphenyl)ethyl)-1-methyl-1H-pyrazole-5-carboxamide]: the IC50 in assay [1] lay in the range of 500 to 2500 nM. At RIPK2 (KD)/XIAP (BIR2), the Emax is at least 80% and the IC50 lay in the range of 10 to 100 nM.
The like results for `COc1cc2ncc(-c3cc(C(=O)NCc4nccn4C)n(C)n3)n2cc1S(=O)(=O)C(C)(C)C` [Example 76, 3-(6-(tert-butylsulfonyl)-7-methoxyimidazo[1,2-a]pyridin-3-yl)-1-methyl-N-((1-methyl-1H-imidazol-2-yl)methyl)-1H-pyrazole-5-carboxamide] were, in that order, over 2500 nM, at most 30% and over 1000 nM.
Regarding `COc1cc2ncc(-c3cc(C(=O)NCc4noc(C)n4)n(C)n3)n2cc1S(=O)(=O)C(C)(C)C` [Example 77, 3-(6-(tert-butylsulfonyl)-7-methoxyimidazo[1,2-a]pyridin-3-yl)-1-methyl-N-((5-methyl-1,2,4-oxadiazol-3-yl)methyl)-1H-pyrazole-5-carboxamide], the half-maximal inhibitory concentration (IC50) in assay [1] was over 2500 nM. Moreover, at RIPK2 (KD)/XIAP (BIR2), the Emax was at least 80% and the half-inhibitory concentration (IC50) fell in the range of 100 to 1000 nM.
Regarding `COc1cc2ncc(-c3cc(C(=O)NCc4nc(C)no4)n(C)n3)n2cc1S(=O)(=O)C(C)(C)C` [Example 78, 3-(6-(tert-butylsulfonyl)-7-methoxyimidazo[1,2-a]pyridin-3-yl)-1-methyl-N-((3-methyl-1,2,4-oxadiazol-5-yl)methyl)-1H-pyrazole-5-carboxamide], the half-inhibitory concentration (IC50) in assay [1] is over 2500 nM. Further, on RIPK2 (KD)/XIAP (BIR2), the Emax lay in the range of 55 to 80% and the concentration for half-maximal inhibition (IC50) was over 1000 nM.
Take `COc1cc2ncc(-c3cc(C(=O)NCc4nccc(C)n4)n(C)n3)n2cc1S(=O)(=O)C(C)(C)C` [Example 79, 3-(6-(tert-butylsulfonyl)-7-methoxyimidazo[1,2-a]pyridin-3-yl)-1-methyl-N-((4-methylpyrimidin-2-yl)methyl)-1H-pyrazole-5-carboxamide]: in assay [1], the IC50 was over 2500 nM. In addition, at RIPK2 (KD)/XIAP (BIR2), the Emax is at least 80% and the IC50 was 100 to 1000 nM.
As to `CCn1nc(-c2cnc3cc(OC)c(S(=O)(=O)C(C)(C)C)cn23)cc1C(=O)NCc1ncccn1` [Example 80, 3-(6-(tert-butylsulfonyl)-7-methoxyimidazo[1,2-a]pyridin-3-yl)-1-ethyl-N-(pyrimidin-2-ylmethyl)-1H-pyrazole-5-carboxamide], the IC50 in assay [1] is 100 to 500 nM. Moreover, at RIPK2 (KD)/XIAP (BIR2), the Emax was at least 80% and the IC50 was in the range of 10 to 100 nM.
For the compound `COc1cc2ncc(-c3cc(C(=O)NCc4ncn(C)n4)n(C)n3)n2cc1S(=O)(=O)C(C)(C)C` [Example 81, 3-(6-(tert-butylsulfonyl)-7-methoxyimidazo[1,2-a]pyridin-3-yl)-1-methyl-N-((1-methyl-1H-1,2,4-triazol-3-yl)methyl)-1H-pyrazole-5-carboxamide], the half-inhibitory concentration (IC50) in assay [1] was over 2500 nM. At RIPK2 (KD)/XIAP (BIR2), the Emax is at least 80% and the concentration for half-maximal inhibition (IC50) was 100 to 1000 nM.
Consider `COc1cc2ncc(-c3cc(C(=O)NCc4ncccc4C#N)n(C)n3)n2cc1S(=O)(=O)C(C)(C)C` [Example 82, 3-(6-(tert-butylsulfonyl)-7-methoxyimidazo[1,2-a]pyridin-3-yl)-N-((3-cyanopyridin-2-yl)methyl)-1-methyl-1H-pyrazole-5-carboxamide], for which the results for the IC50 (in assay [1]; at RIPK2 (KD)/XIAP (BIR2)) were 500 to 2500 nM and 10 to 100 nM, respectively. The Emax on RIPK2 (KD)/XIAP (BIR2) was at least 80%.
With `COc1cc2ncc(-c3cc(C(=O)NCc4ccccc4C#N)n(C)n3)n2cc1S(=O)(=O)C(C)(C)C` [Example 83, 3-(6-(tert-butylsulfonyl)-7-methoxyimidazo[1,2-a]pyridin-3-yl)-N-(2-cyanobenzyl)-1-methyl-1H-pyrazole-5-carboxamide], the concentration for half-maximal inhibition (IC50) in assay [1] is over 2500 nM. Moreover, on RIPK2 (KD)/XIAP (BIR2), the Emax was at least 80% and the IC50 was 100 to 1000 nM.
`COc1cc2ncc(-c3cc(C(=O)NCc4nccs4)n(C)n3)n2cc1S(=O)(=O)C(C)(C)C` [Example 84, 3-(6-(tert-butylsulfonyl)-7-methoxyimidazo[1,2-a]pyridin-3-yl)-1-methyl-N-(thiazol-2-ylmethyl)-1H-pyrazole-5-carboxamide]: the IC50 in assay [1] fell in the range of 500 to 2500 nM. Also, at RIPK2 (KD)/XIAP (BIR2), the Emax is at least 80% and the 50% inhibitory concentration (IC50) is 10 to 100 nM.
`COc1cc2ncc(-c3cc(C(=O)NCc4cscn4)n(C)n3)n2cc1S(=O)(=O)C(C)(C)C` [Example 85, 3-(6-(tert-butylsulfonyl)-7-methoxyimidazo[1,2-a]pyridin-3-yl)-1-methyl-N-(thiazol-4-ylmethyl)-1H-pyrazole-5-carboxamide]: in assay [1], the IC50 lay within 500 to 2500 nM. Moreover, on RIPK2 (KD)/XIAP (BIR2), the Emax is at least 80% and the 50% inhibitory concentration (IC50) was in the range of 10 to 100 nM.
The like results for `COc1cc2ncc(-c3cc(C(=O)NCc4ccsn4)n(C)n3)n2cc1S(=O)(=O)C(C)(C)C` [Example 86, 3-(6-(tert-butylsulfonyl)-7-methoxyimidazo[1,2-a]pyridin-3-yl)-N-(isothiazol-3-ylmethyl)-1-methyl-1H-pyrazole-5-carboxamide] were, in that order, 100 to 500 nM, at least 80% and 10 to 100 nM.
For the compound `COc1cc2ncc(-c3cc(C(=O)NCc4cc(C)sn4)n(C)n3)n2cc1S(=O)(=O)C(C)(C)C` [Example 87, 3-(6-(tert-butylsulfonyl)-7-methoxyimidazo[1,2-a]pyridin-3-yl)-1-methyl-N-((5-methylisothiazol-3-yl)methyl)-1H-pyrazole-5-carboxamide], the IC50 in assay [1] was in the range of 500 to 2500 nM. Also, on RIPK2 (KD)/XIAP (BIR2), the Emax is at least 80% and the half-inhibitory concentration (IC50) lay within 10 to 100 nM.
`COc1cc2ncc(-c3cc(C(=O)NCc4nc(C)cs4)n(C)n3)n2cc1S(=O)(=O)C(C)(C)C` [Example 88, 3-(6-(tert-butylsulfonyl)-7-methoxyimidazo[1,2-a]pyridin-3-yl)-1-methyl-N-((4-methylthiazol-2-yl)methyl)-1H-pyrazole-5-carboxamide]: the half-maximal inhibitory concentration (IC50) in assay [1] lay within 500 to 2500 nM. In addition, at RIPK2 (KD)/XIAP (BIR2), the Emax is at least 80% and the half-inhibitory concentration (IC50) fell in the range of 100 to 1000 nM.
As to `COc1cc2ncc(-c3cc(C(=O)NCc4ncc(C)s4)n(C)n3)n2cc1S(=O)(=O)C(C)(C)C` [Example 89, 3-(6-(tert-butylsulfonyl)-7-methoxyimidazo[1,2-a]pyridin-3-yl)-1-methyl-N-((5-methylthiazol-2-yl)methyl)-1H-pyrazole-5-carboxamide], the IC50 in assay [1] fell in the range of 100 to 500 nM. Besides, on RIPK2 (KD)/XIAP (BIR2), the Emax was at least 80% and the half-inhibitory concentration (IC50) was in the range of 10 to 100 nM.
`COc1cc2ncc(-c3cc(C(=O)NCc4ncsn4)n(C)n3)n2cc1S(=O)(=O)C(C)(C)C` [Example 90, N-((1,2,4-thiadiazol-3-yl)methyl)-3-(6-(tert-butylsulfonyl)-7-methoxyimidazo[1,2-a]pyridin-3-yl)-1-methyl-1H-pyrazole-5-carboxamide]: the IC50 in assay [1] was in the range of 500 to 2500 nM. For the same compound, on RIPK2 (KD)/XIAP (BIR2), the Emax lay in the range of 55 to 80% and the IC50 lay within 10 to 100 nM.
As for `COc1cc2ncc(-c3cc(C(=O)NCc4nsc(C)n4)n(C)n3)n2cc1S(=O)(=O)C(C)(C)C` [Example 91, 3-(6-(tert-butylsulfonyl)-7-methoxyimidazo[1,2-a]pyridin-3-yl)-1-methyl-N-((5-methyl-1,2,4-thiadiazol-3-yl)methyl)-1H-pyrazole-5-carboxamide], the concentration for half-maximal inhibition (IC50) in assay [1] was over 2500 nM. Besides, at RIPK2 (KD)/XIAP (BIR2), the Emax is 55 to 80% and the IC50 was 100 to 1000 nM.
With `COc1cc2ncc(-c3cc(C(=O)NCc4nc(C)c(C)s4)n(C)n3)n2cc1S(=O)(=O)C(C)(C)C` [Example 92, 3-(6-(tert-butylsulfonyl)-7-methoxyimidazo[1,2-a]pyridin-3-yl)-N-((4,5-dimethylthiazol-2-yl)methyl)-1-methyl-1H-pyrazole-5-carboxamide], the IC50 in assay [1] is over 2500 nM; on RIPK2 (KD)/XIAP (BIR2), 100 to 1000 nM. The Emax at RIPK2 (KD)/XIAP (BIR2) was at least 80%.
As to `COc1cc2ncc(-c3cc(C(=O)N[C@H](C)c4nccs4)n(C)n3)n2cc1S(=O)(=O)C(C)(C)C` [Example 93, (R)-3-(6-(tert-butylsulfonyl)-7-methoxyimidazo[1,2-a]pyridin-3-yl)-1-methyl-N-(1-(thiazol-2-yl)ethyl)-1H-pyrazole-5-carboxamide], the half-inhibitory concentration (IC50) in assay [1] was 100 to 500 nM. In addition, on RIPK2 (KD)/XIAP (BIR2), the Emax is at least 80% and the half-maximal inhibitory concentration (IC50) is 10 to 100 nM.
